This is an account of results in PubChem BioAssay AID2423 (Broad Institute, 2010).

pEC50: −log10 of the molar value. Records with an inconclusive call do not appear. Activity calls are given as the source filed them. No rule for the calls is given here.

The test system of this experiment is C. albicans CaCi-8 + fluconazole, Alamar Blue growth, 48 h. In words: resistant C. albicans growth inhibition with fluconazole, dose response, CaCi-8 strain, Alamar Blue fluorescence (AID 2423).
For the compound `Brc1ccc(CSc2nnc(-c3cnccn3)n2Cc2ccco2)cc1`, the pEC50 is 5.70.

As for `C(#Cc1ccccc1)C[N+]1(CC#Cc2ccccc2)CCCCC1`, the pEC50 is 4.98. `Cc1cccc(NC(=S)N/N=C(\c2ccccc2)C(C)C)c1`: the pEC50 was 5.51. As for `CCN(CC)c1ccc(N=Cc2ccc(N(CC)CC)cc2O)cc1`, the pEC50 was 4.95.

Take `CN1CCN(C(=O)c2cnn(-c3ccccc3)c2NC(=O)c2ccccc2)CC1`: the EC50 was > 15000 nM (inactive).

Regarding `O=C(Oc1c(CN2CCOCC2)cc(Cl)c2cccnc12)c1cccs1`, the pEC50 was 5.47. On to `COc1ccc(CCn2c(C)cc3c(c2=O)C(c2ccc4c(c2)OCO4)C(C#N)=C(N)O3)cc1OC` (stereo not given), for which the EC50 was > 16000 nM (inactive).

Take `Cc1ccc(C(=O)c2coc3cc([N+](=O)[O-])c(O)c([N+](=O)[O-])c23)cc1`: the pEC50 is 5.91. Consider `CC(C)(C)c1ccc(SCC(N)=O)cc1`, for which the EC50 was > 15000 nM (inactive). Turning to `Oc1c(Br)cc(Br)cc1Oc1ccc(Br)cc1Br`, the pEC50 was 5.76. As to `COc1ccc(C(=O)Oc2c(CN3CCOCC3)cc(Cl)c3cccnc23)cc1`, the pEC50 is 5.04. `O=C(NNC(=O)c1ccccc1O)c1ccc(-c2ccc([N+](=O)[O-])cc2)o1`: the EC50 was > 15000 nM (inactive). With `COc1cccc(/C=N/Nc2cc(N3CCOCC3)ncn2)c1O`, the pEC50 was 5.20. `Cn1cc(C(c2ccccn2)c2cn(C)c3ccccc23)c2ccccc21`: the pEC50 is 6.73. Same read-out and setting: next, `O=C(NNc1nc2ccc(Cl)cc2s1)c1cc(-c2cccs2)nc2ccccc12`: 6.40; `O=[N+]([O-])c1c(C(Cl)Cl)nn(-c2ccc(Cl)cc2)c1N1CCCCC1`: 6.36. As for `N=C(N)c1ccc(/C=C/c2ccc(C(=N)N)cc2O)cc1`, the EC50 was > 15000 nM (inactive).

Consider `CCN(CC)Cc1ccc(NC(=O)c2sc3cc(Cl)ccc3c2Cl)cc1`, for which the pEC50 is 5.96. Consider `O=C(NCc1ccc(Cl)cc1)c1n[nH]c([N+](=O)[O-])c1Cl`, for which the EC50 is > 16000 nM (inactive). For the compound `O=C(Nc1nnc(-c2ccccn2)o1)c1ccc(Br)cc1`, the EC50 is > 15000 nM (inactive). Turning to `CCCCCn1c(=O)c(C(=O)NCc2ccncc2)c(O)c2ccccc21`, the pEC50 was 5.76. For the compound `COc1ccc(/C=C/c2cc(-c3ccc(C)cc3)o[n+]2C)cc1`, the pEC50 is 5.78.

In the case of `C=CCN(CC=C)Cc1c(O)ccc2c(=O)c(-c3ccccc3)coc12`, the pEC50 is > 6.92. On the same count and under the same terms, next, `CC1(O)CC(c2ccc(Cl)cc2)=NN1C(=O)c1ccc([N+](=O)[O-])cc1` (stereo not given): 5.49; `O=C(N/N=C\c1c(O)ccc2ccccc12)c1ccc(S(=O)(=O)N2CCCCC2)cc1`: 6.55. On to `COc1ccc(Cn2c(O)c(/C=N/NC(=O)c3cccnc3)c3ccccc3c2=O)cc1`, for which the pEC50 was 6.12.

For the compound `Cc1ccc(C(=O)NC(=O)OCCn2c(C)cnc2[N+](=O)[O-])cc1`, the EC50 is > 16000 nM (inactive).

With `O=C(O)c1ccc(Nc2cnc3ccccc3n2)cc1`, the EC50 was > 16000 nM (inactive). As to `CCOC(=O)Cc1csc(NC(=O)c2ccc3ncsc3c2)n1`, the pEC50 is 5.17. In the case of `CNC(=S)N1N=C(c2ccccc2)CC1c1ccccc1Cl` (stereo not given), the EC50 was > 16000 nM (inactive).

Take `COc1cc([N+](=O)[O-])cc(/C=N/NC(=O)c2cc(-c3ccccc3)nc3ccccc23)c1O`: the pEC50 was 5.81. In the case of `OCCCNc1cc(-c2ccnc(Nc3cccc(Cl)c3)n2)ccn1`, the pEC50 was 6.03. As for `Oc1ccccc1/C=N/Nc1nccnc1Cl`, the pEC50 is 5.89. Take `CCC(=O)NC(c1ccc(C)cc1)c1cc([N+](=O)[O-])c2cccnc2c1O` (stereo not given): the pEC50 was 6.29.

As for `Cc1nn(CC(=O)NCCCc2ccccc2)c(C)c1[N+](=O)[O-]`, the EC50 is > 15000 nM (inactive).

Regarding `CN1/C(=C/C(=O)c2cccs2)Sc2ccccc21`, the pEC50 is 6.08.

As to `COC(=O)/C(=N\Nc1ccc(Cl)cc1)Sc1nnc(-c2ccc(OC)cc2)n1C`, the EC50 was > 16000 nM (inactive).

Take `CC(c1ccccc1)N1CCn2c(nc3cc(NS(C)(=O)=O)ccc32)C1` (stereo not given): the EC50 was > 16000 nM (inactive). As for `O=C(N/N=C/c1c(O)n(CCC2=CCCCC2)c(=S)[nH]c1=O)c1ccccc1`, the pEC50 is 4.97. As for `O=C1CS/C(=N\C(=O)N2c3ccccc3Sc3ccccc32)N1`, the pEC50 was 5.96. Turning to `COc1cc(OC)cc(C(=O)NNC(=O)Cc2ccc(OC)c(S(=O)(=O)N3CCOCC3)c2)c1`, the EC50 was > 15000 nM (inactive). On to `Cc1nc2sc(C(c3cccc(F)c3)N3CCCC(C)C3)c(O)n2n1` (stereo not given), for which the pEC50 is 6.10. On the same count and under the same terms, next, `COc1cccc(C(=O)NNC(=O)c2ccc3ccccc3c2O)c1`: 5.03. For the compound `CCCCC(=O)NC(=S)Nc1cccc(NC(=O)c2ccco2)c1`, the pEC50 was 5.91. For `CC1Oc2cc3oc4c(O)c(O)ccc4c(=O)c3c(O)c2C1(C)C` (stereo not given), the pEC50 is 4.84. As to `CC(C)CC(=O)NC(=S)NNC(=O)c1ccc(NC(=O)C2CCCCC2)cc1`, the pEC50 is 5.92. Still for that read-out and setting: the value for `Cc1nc(C)c(C(=O)N/N=C/c2cc(Br)ccc2O)s1` was 5.67. Consider `CCc1ccc(CNC(=O)CCC(=O)N2Cc3cccc(OC)c3Oc3ncccc32)cc1`, for which the EC50 is > 16000 nM (inactive). Take `O=C(Nc1sc2c(c1C(=O)c1ccc(Cl)cc1)CCCC2)c1cccnc1`: the pEC50 is 6.21. Take `O=C(c1ccccc1)C(CN1CCCC1)c1ccccc1` (stereo not given): the EC50 was > 16000 nM (inactive). As for `CCOC(=O)c1cnc(-n2cc(C)cn2)nc1Nc1ccccc1OCC`, the pEC50 was 4.90. As for `Cc1cc(NC(=O)c2ccc([N+](=O)[O-])o2)ccc1NC(=O)c1ccco1`, the pEC50 was 6.47. On the same count and under the same terms, the value for `CC(C)(C)c1ccc(C(=O)NC(=S)NNC(=O)COc2ccccc2)cc1` was 5.68; that for `Cc1cc2ccccn2c1C(C[N+](=O)[O-])c1c(F)cccc1Cl` (stereo not given) was 6.42. Same read-out and setting: next, `CCCC(=O)NC(c1ccc(N(C)C)cc1)c1ccc2cccnc2c1O` (stereo not given): 6.20.

For the compound `Oc1c(Cl)cc(Cl)c(Cl)c1Cc1c(O)c(Cl)cc(Cl)c1Cl`, the pEC50 is 5.76.

Consider `CN(C)c1ccc(NC(=O)C2C3C=CC(C3)C2C(=O)O)cc1` (stereo not given), for which the EC50 was > 16000 nM (inactive). For `O=C(CC1CC2CCC1C2)Nc1nc(-c2ccccn2)cs1` (stereo not given), the pEC50 was 6.19. As to `Oc1ccc(/C=N/NP(=S)(c2ccccc2)c2ccccc2)c(O)c1O`, the pEC50 is 5.05. As to `COc1ccc2c(c1)/C(=C/c1cnc[nH]1)C(=O)N2`, the pEC50 was 5.90. For the compound `Cc1cc(C)c2nc(NNC(=O)c3cc(-c4cccs4)nc4ccccc34)sc2c1`, the pEC50 was 6.09. In the case of `CCNC(=S)NNC(=O)c1cc(-c2ccccc2C)nc2ccccc12`, the pEC50 was 5.85. Still for that read-out and setting: the value for `CCCCCc1ccc(-c2ccc(/C=C/C(=O)O)cc2)nc1` was 6.02. On to `CCn1cc(C(=O)OCC(=O)Nc2cccc(Cl)c2Cl)c(=O)c2ccc(C)nc21`, for which the EC50 was > 15000 nM (inactive). Consider `CCn1nnnc1NC(=O)c1cc(Cl)c(OC)c(Cl)c1`, for which the pEC50 was 5.26.

With `S=c1nc[nH]c2c1cnn2Cc1ccccc1`, the pEC50 was 5.63. `CNC(=O)Nc1cc(C(F)(F)F)cc(C(F)(F)F)c1`: the pEC50 was 6.13. As to `CSC(=S)NCc1cccnc1`, the EC50 was > 16000 nM (inactive). Consider `Cc1noc2ncnc(Sc3ccc(Cl)cc3)c12`, for which the pEC50 is 5.53.

`CCc1ccc(/C=C2\SC(=S)N(CCCC(=O)Nc3ccccc3C(=O)O)C2=O)cc1`: the pEC50 was 6.52.

The pEC50 is −log10 of the EC50, conventionally taken in molar units. One may read the EC50 as the concentration at which the effect is half-maximal.
